Counter-ions that a name gives are not always drawn.
Legend:
[1] = target: Human CB1R (Cannabinoid receptor 1) (Homo sapiens (Human), UniProt P21554); experiment: CB-1 in vitro cAMP assay (HTRF), inverse agonism; assay type: cell-based; conditions: mean where tested more than once
[2] = target: Human CB2R (Cannabinoid receptor 2) (Homo sapiens (Human), UniProt P34972); experiment: CB-2 in vitro cAMP assay (HTRF), inverse agonism; assay type: cell-based; conditions: mean where tested more than once
Sequence of Human CB2R (Cannabinoid receptor 2) (P34972 whole entry): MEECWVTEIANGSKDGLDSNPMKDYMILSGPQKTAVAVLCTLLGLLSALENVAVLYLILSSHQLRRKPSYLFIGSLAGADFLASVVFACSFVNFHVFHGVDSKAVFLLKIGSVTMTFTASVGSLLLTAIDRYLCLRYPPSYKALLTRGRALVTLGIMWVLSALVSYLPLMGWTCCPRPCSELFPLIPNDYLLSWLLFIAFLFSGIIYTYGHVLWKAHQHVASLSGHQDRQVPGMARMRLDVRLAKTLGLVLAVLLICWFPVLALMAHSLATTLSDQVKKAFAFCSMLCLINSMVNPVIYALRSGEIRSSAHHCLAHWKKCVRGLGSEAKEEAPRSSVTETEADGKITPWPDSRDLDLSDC

Sequence of Human CB1R (Cannabinoid receptor 1) (P21554 whole entry): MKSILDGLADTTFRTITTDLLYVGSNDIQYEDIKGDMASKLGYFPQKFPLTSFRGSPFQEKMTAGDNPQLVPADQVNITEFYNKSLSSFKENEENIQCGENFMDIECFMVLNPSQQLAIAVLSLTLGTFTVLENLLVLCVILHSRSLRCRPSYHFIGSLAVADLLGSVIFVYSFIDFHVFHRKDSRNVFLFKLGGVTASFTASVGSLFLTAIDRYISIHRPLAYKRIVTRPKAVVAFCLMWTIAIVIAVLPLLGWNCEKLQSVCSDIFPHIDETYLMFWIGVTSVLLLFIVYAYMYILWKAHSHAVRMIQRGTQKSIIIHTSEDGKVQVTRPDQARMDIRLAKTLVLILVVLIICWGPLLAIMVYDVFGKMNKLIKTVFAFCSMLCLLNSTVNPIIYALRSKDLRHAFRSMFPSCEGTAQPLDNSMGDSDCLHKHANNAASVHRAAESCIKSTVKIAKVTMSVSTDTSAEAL

Compound	EC50 [1]	EC50 [2]
CC(C)S(=O)(=O)N1CCC(Nc2cc(=O)[nH]c3ccc(C(c4ccc(Cl)cc4)c4nccs4)cc23)CC1 (centres unmarked) [Compound 40, 6-[(4-Chlorophenyl)(1,3-thiazol-2-yl)methyl]-4-({1-[(1-methylethyl)sulfonyl]piperidin-4-yl}amino)quinolin-2(1H)-one]	204 nM	> 10000 nM
O=C(O)CC(=O)N1CCC(Nc2cc(=O)[nH]c3ccc(C(c4ccc(Cl)cc4)c4ccc(Cl)cc4)cc23)CC1 [Compound 96, 3-[4-({6-[Bis(4-chlorophenyl)methyl]-2-oxo-1,2-dihydroquinolin-4-yl}amino)piperidin-1-yl]-3-oxopropanoic acid]	220 nM	> 10000 nM
NC(=O)COc1ccc(Nc2cc(=O)[nH]c3ccc(C(c4ccc(Cl)cc4)c4ccc(Cl)cc4)cc23)cc1 [Compound 111, 2-(4-((6-(bis(4-chlorophenyl)methyl)-2-oxo-1,2-dihydroquinolin-4-yl)amino)phenoxy)acetamide]	99 nM	> 10000 nM
NCCCCOc1cc(C(c2ccc(Cl)cc2)c2ccc(Cl)cc2)cc2c(NC3CCN(S(=O)(=O)C(F)(F)F)CC3)ccnc12 [Compound 542, 8-(4-aminobutoxy)-6-(bis(4-chlorophenyl)methyl)-N-(1-((trifluoromethyl)sulfonyl)piperidin-4-yl)quinolin-4-amine, trifluoroacetic acid salt]	144 nM	> 10000 nM
CC(C)(C)OC(=O)N1CC[C@H](Nc2cc(=O)[nH]c3ccc(C(c4ccc(Cl)cc4)c4nccs4)cc23)C1 (stereo partly drawn) [Compound 45, tert-Butyl (3S)-3-({6-[(4-chlorophenyl)(1,3-thiazol-2-yl)methyl]-2-oxo-1,2-dihydroquinolin-4-yl}amino)pyrrolidine-1-carboxylate]	1170 nM	> 10000 nM
O=c1cc(NC2CCN(S(=O)(=O)C(F)(F)F)CC2)c2cc(C(Cc3ccc(F)cc3)c3ccc(Cl)cc3)ccc2[nH]1 (centres unmarked) [Compound #135, 6-(1-(4-chlorophenyl)-2-(4-fluorophenyl)ethyl)-4-((1-((trifluoromethyl)sulfonyl)piperidin-4-yl)amino)quinolin-2(1H)-one]	1100 nM	6810 nM
O=c1cc(/C=C/c2ccc(C(F)(F)F)cc2)c2cc(C(c3ccc(Cl)cc3)c3ccc(Cl)s3)ccc2[nH]1 (centres unmarked) [Compound 29, 6-[(4-Chlorophenyl)(5-chlorothiophen-2-yl)methyl]-4-{(E)-2-[4-(trifluoromethyl)phenyl]-ethenyl}quinolin-2(1H)-one]	759 nM	> 10000 nM
OC(c1ccc(Cl)cc1)(c1ccc2nccc(/C=C/c3ccccc3)c2c1)c1cscn1 (centres unmarked) [Compound 517, (E)-(4-chlorophenyl)(4-styrylquinolin-6-yl)(thiazol-4-yl)methanol]	884 nM	340 nM
O=C(O)CCCOc1ccc(Nc2cc(=O)[nH]c3ccc(C(c4ccc(Cl)cc4)c4ccc(Cl)cc4)cc23)cc1 [Compound 121, 4-[4-({6-[Bis(4-chlorophenyl)methyl]-2-oxo-1,2-dihydroquinolin-4-yl}amino)phenoxy]butanoic acid]	1010 nM	> 10000 nM
O=c1cc(/C=C/c2ccccc2)c2cc(C(c3ccc(Cl)cc3)c3ccc(Cl)cc3)ccc2[nH]1 [Compound 502]	580 nM	> 10000 nM
O=c1cc(/C=C/c2cccc(F)c2)c2cc(C(c3ccc(Cl)cc3)c3nccs3)ccc2[nH]1 (centres unmarked) [Compound 38, (E)-6-((4-chlorophenyl)(thiazol-2-yl)methyl)-4-(3-fluorostyryl)quinolin-2(1H)-one]	497 nM	> 10000 nM

Stronger by EC50 [1], values ahead:

EC50 [1]	EC50 [2]	Compound
81 nM	7100 nM	CCOC(=O)CCCCOc1cc(C(c2ccc(Cl)cc2)c2ccc(Cl)cc2)cc2c(NC3CCN(S(=O)(=O)C(F)(F)F)CC3)ccnc12 [Compound 540, ethyl 5-((6-(bis(4-chlorophenyl)methyl)-4-((1-((trifluoromethyl)sulfonyl)piperidin-4-yl)amino)quinolin-8-yl)oxy)pentanoate]
79 nM	8100 nM	NC(=O)Cc1ccc(Nc2cc(=O)[nH]c3ccc(C(c4ccc(Cl)cc4)c4ccc(Cl)cc4)cc23)cc1 [Compound 126, 2-[4-({6-[Bis(4-chlorophenyl)methyl]-2-oxo-1,2-dihydroquinolin-4-yl}amino)phenyl]acetamide]
45 nM	> 10000 nM	O=c1cc(NCc2ccc(C(F)(F)F)cc2)c2cc(C(c3ccc(Cl)cc3)c3ccc(Cl)cc3)ccc2[nH]1 [Compound 58, 6-[Bis(4-chlorophenyl)methyl]-4-{[4-(trifluoromethyl)benzyl]amino}-quinolin-2(1H)-one]
29 nM	8280 nM	COc1ccc(C(O)(c2ccc(Cl)cc2)c2ccc3[nH]c(=O)cc(NC4CCN(S(=O)(=O)C(F)(F)F)CC4)c3c2)cc1 (centres unmarked) [Compound 51, 6-[(4-chlorophenyl)(hydroxy)(4-methoxyphenyl)methyl]-4-[[1-(trifluoromethane)sulfonylpiperidin-4-yl]amino]-1,2-dihydroquinolin-2-one]
28 nM	4500 nM	O=C(c1ccccc1)N1CCC(Nc2cc(=O)[nH]c3ccc(C(c4ccc(Cl)cc4)c4ccc(Cl)cc4)cc23)CC1 [Compound 64, 4-((1-benzoylpiperidin-4-yl)amino)-6-(bis(4-chlorophenyl)methyl)quinolin-2(1H)-one]
25 nM	> 10000 nM	O=c1cc(Nc2cccc(C(F)(F)F)c2)c2cc(C(c3ccc(Cl)cc3)c3ccc(Cl)cc3)ccc2[nH]1 [Compound 75, 6-[Bis(4-chlorophenyl)methyl]-4-{[3-(trifluoromethyl)phenyl]amino}-quinolin-2(1H)-one]
22 nM	> 10000 nM	CCS(=O)(=O)N1CCC(Nc2cc(=O)[nH]c3ccc(C(c4ccc(Cl)cc4)c4ccc(Cl)cc4)cc23)CC1 [Compound #56, 6-(bis(4-chlorophenyl)methyl)-4-((1-(ethylsulfonyl)piperidin-4-yl)amino)quinolin-2(1H)-one]
12 nM	180 nM	O=S(=O)(N1CCC(Nc2ccnc3c(Br)cc(C(c4ccc(Cl)cc4)c4ccc(Cl)cc4)cc23)CC1)C(F)(F)F [Compound 524, 6-(bis(4-chlorophenyl)methyl)-8-bromo-N-(1-((trifluoromethyl)sulfonyl)piperidin-4-yl)quinolin-4-amine]
11 nM	4100 nM	O=c1cc(NC2CCN(c3ncccn3)CC2)c2cc(C(c3ccc(Cl)cc3)c3ccc(Cl)cc3)ccc2[nH]1 [Compound 57, 6-(bis(4-chlorophenyl)methyl)-4-((1-(pyrimidin-2-yl)piperidin-4-yl)amino)quinolin-2(1H)-one]
10 nM	50 nM	O=c1cc(NC2CCN(S(=O)(=O)C(F)(F)F)CC2)c2cc(C(c3ccc(Cl)cc3)c3ccc(Cl)cc3)cc(Br)c2[nH]1 [Compound 92, 6-(bis(4-chlorophenyl)methyl)-8-bromo-4-((1-((trifluoromethyl)sulfonyl)piperidin-4-yl)amino)quinolin-2(1H)-one]
8 nM	1830 nM	COc1ccc(C(c2ccc(Cl)cc2)c2ccc3[nH]c(=O)cc(NC4CCN(S(=O)(=O)C(F)(F)F)CC4)c3c2)cc1 (centres unmarked) [Compound #54, 6-((4-chlorophenyl)(4-methoxyphenyl)methyl)-4-((1-((trifluoromethyl)sulfonyl)piperidin-4-yl)amino)quinolin-2(1H)-one]

From patent US9266835B2, “Quinoline derivatives useful as CB-1 inverse agonists” (JANSSEN PHARMACEUTICA NV, priority 2014, dated 2016)
